Consider eight compounds from ChEMBL document CHEMBL3886913, “2,4-diamino-6,7-dihydro-5H-pyrrolo[2,3]pyrimidine derivatives as FAK/Pyk2 inhibitors” (2016).

One assay addresses Focal adhesion kinase 1 (Homo sapiens, UniProt Q05397). Briefly: (§1) Biochemical Assay: To measure inhibitory activity of FAK/PYK2 inhibitors, compounds were first prepare as a 1 mM stock in 100% DMSO and 3-fold serial dilution was performed in a 96-well plate (Corning, 3897) to generate 12 different concentration of 100× stock. A 5 μl of 100× stock of each concentration was added to wells containing 95 μl of 1× reaction buffer (40 mM Tris, pH7.5, […], 1 mM DTT and 1 mM CHAPS) to generate 5× stock. Then 2 μl of 5× stock of each concentration was added to a 384 wells-OptiPlate (PerkinElmer, 6007299). For FAK, 4 μl of 2.5 nM FAK, 1 μl of 8 μg/μl BSA and 1.5 μl of 666 nM ULight-poly Glu, Ala, Tyr (1:1:1) peptide substrate, prepared in above reaction buffer, were added to each well. The reaction was initiated by adding 1.5 μl of 33.3 μM ATP. The reaction was allowed to proceed for 120 min before being quenched with 5 μl of 40 mM EDTA stop buffer prepared in 1×LANCE detection buffer (PerkinElmer, CR97-100). For PYK2, 5 μl of 2 nM PYK2 and 1.5 μl of 666 nM ULight-poly Glu, Ala, Tyr (1:1:1) peptide substrate, prepared in above reaction buffer, were added to each well. The reaction was initiated by adding 1.5 μl of 46.6 μM ATP. The reaction was allowed to proceed for 40 min before being quenched with 5 μl of 40 mM EDTA stop buffer prepared in 1×LANCE detection buffer (PerkinElmer, CR97-100). Upon quenching of the reaction, 5 μl of 8 nM anti-phosphotyrosine antibody was added to each well and incubated for 60 minutes. For orientation: In TR-FRET formats the signal depends on donor and acceptor labels being close together.

Assay [1] concerns the target Protein-tyrosine kinase 2-beta (Homo sapiens, UniProt Q14289). The assay is described as §1.

Where only a bound is given, the exact number is not on record here.

Sequence of Protein-tyrosine kinase 2-beta (Q14289 whole entry): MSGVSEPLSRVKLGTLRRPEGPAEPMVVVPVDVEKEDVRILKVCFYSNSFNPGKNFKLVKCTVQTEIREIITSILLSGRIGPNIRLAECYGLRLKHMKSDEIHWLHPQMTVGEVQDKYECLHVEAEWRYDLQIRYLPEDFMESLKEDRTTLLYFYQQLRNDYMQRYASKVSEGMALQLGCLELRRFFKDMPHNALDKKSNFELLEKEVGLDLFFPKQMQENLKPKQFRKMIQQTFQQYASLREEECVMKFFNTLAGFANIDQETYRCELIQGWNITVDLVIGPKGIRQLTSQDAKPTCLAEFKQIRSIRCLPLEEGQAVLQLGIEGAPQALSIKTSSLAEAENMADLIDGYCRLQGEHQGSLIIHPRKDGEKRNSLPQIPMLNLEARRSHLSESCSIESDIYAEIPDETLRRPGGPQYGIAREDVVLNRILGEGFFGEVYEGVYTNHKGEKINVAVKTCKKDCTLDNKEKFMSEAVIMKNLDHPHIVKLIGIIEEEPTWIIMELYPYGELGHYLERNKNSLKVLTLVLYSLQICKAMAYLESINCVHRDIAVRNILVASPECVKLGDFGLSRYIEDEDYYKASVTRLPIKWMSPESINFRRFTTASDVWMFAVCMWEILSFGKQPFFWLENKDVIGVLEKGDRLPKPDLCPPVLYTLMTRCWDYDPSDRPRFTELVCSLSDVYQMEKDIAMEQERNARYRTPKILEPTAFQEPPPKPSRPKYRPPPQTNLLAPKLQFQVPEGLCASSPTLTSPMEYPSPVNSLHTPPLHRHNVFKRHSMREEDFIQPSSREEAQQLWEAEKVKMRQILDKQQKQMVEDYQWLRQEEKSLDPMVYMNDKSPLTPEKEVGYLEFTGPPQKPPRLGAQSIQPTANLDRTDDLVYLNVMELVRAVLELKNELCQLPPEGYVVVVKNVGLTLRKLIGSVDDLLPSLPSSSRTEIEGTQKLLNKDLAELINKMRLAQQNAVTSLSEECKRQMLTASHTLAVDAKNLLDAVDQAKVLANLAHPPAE
Sequence of Focal adhesion kinase 1 (Q05397 whole entry): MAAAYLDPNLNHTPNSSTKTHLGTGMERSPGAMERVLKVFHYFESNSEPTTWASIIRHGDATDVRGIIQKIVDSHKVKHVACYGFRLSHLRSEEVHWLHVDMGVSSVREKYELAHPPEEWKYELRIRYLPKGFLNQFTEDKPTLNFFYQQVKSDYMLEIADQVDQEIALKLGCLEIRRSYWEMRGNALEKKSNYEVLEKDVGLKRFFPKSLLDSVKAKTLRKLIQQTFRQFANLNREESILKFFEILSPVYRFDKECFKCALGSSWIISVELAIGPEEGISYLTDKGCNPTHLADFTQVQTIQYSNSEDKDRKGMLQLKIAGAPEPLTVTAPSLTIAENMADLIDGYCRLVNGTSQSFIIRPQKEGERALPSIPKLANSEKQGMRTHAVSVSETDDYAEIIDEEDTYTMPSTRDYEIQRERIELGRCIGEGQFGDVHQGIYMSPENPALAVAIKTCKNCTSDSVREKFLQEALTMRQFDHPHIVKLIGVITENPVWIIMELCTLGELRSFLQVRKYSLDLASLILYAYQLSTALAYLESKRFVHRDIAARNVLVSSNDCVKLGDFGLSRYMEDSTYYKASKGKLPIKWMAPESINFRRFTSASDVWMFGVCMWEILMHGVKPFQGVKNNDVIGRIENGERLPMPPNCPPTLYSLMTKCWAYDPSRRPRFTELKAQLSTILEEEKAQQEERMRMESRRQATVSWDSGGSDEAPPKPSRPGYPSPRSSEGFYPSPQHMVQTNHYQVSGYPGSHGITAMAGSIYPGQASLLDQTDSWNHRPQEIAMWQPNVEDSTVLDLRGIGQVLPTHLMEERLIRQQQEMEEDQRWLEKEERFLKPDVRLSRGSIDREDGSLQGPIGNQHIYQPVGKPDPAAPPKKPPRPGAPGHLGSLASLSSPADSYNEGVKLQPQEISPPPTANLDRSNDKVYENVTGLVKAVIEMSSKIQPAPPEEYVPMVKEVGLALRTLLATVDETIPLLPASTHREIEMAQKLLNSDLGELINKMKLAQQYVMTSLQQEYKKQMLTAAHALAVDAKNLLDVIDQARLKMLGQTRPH

As for `CCOc1cc(N2CCOCC2)ccc1Nc1nc2c(c(Nc3ccccc3S(=O)(=O)NC(C)C)n1)CCN2`, the IC50 was less than 50 nM against Focal adhesion kinase 1 and less than 100 nM in assay [1].

For the compound `COc1cc(N2CCOCC2)ccc1Nc1nc2c(c(Nc3ccc(F)c(F)c3)n1)CCN2`, the figures for the IC50 (on Focal adhesion kinase 1; in assay [1]) were more than 1000 nM and less than 1000 nM, respectively.

As for `COc1cc(N2CCCCC2=O)ccc1Nc1nc2c(c(Nc3ccccc3S(=O)(=O)NC(C)C)n1)CCN2`, the IC50 (on Focal adhesion kinase 1; in assay [1]) was less than 20 nM throughout.

Take `CCC(C)NS(=O)(=O)c1ccccc1Nc1nc(Nc2ccc(N3CCOCC3)cc2OC)nc2c1C1(CC1)CN2` (stereo unspecified): the IC50 (at Focal adhesion kinase 1; in assay [1]) was less than 20 nM in each case.

`CC(C)NS(=O)(=O)c1ccccc1Nc1nc(Nc2ccc(C(C)N3CCCCC3)cc2)nc2c1CCN2` (stereo unspecified): the IC50 (against Focal adhesion kinase 1; in assay [1]) was less than 20 nM each time.

Regarding `COc1cc(N2CCOCC2)ccc1Nc1nc2c(c(Nc3ccccc3CCO)n1)CCN2`, the IC50 (at Focal adhesion kinase 1; in assay [1]) was less than 1000 nM each time.

With `COc1cc(N2C(=O)CCc3ccccc32)ccc1Nc1nc2c(c(Nc3ccccc3S(=O)(=O)NC(C)C)n1)CCN2`, the IC50 (at Focal adhesion kinase 1; in assay [1]) was less than 500 nM in each case.

For `COc1cc(N2CCC(N3CCOCC3)CC2)ccc1Nc1nc2c(c(Nc3ccccc3S(=O)(=O)NC(C)C)n1)CCN2`, the IC50 (against Focal adhesion kinase 1; in assay [1]) was less than 20 nM throughout.

What is called IC50 is the midpoint of a concentration-inhibition curve. Lower therefore signals greater potency in that assay.
